In patent US20090298938A1, “USE OF SEMI SYNTHETIC ANALOGUES OF BOSWELLIC ACIDS FOR ANTICANCER ACTIVITY” (COUNCIL OF SCIENTIFIC & INDUSTRIAL RESEARCH, priority 2008, published 2009):

Experiments:
Assay type in all cases: cell-based, human
[1] = system: Colo-205 colon cancer cells; test: In vitro cytotoxicity, SRB assay, Colo-205
Procedure: (§1) The semi-synthetic analogues of formula 1 have been subjected to in vitro cytotoxicity screening in a panel of human cancer cell lines using following methodology. The human cancer cell lines were obtained either from National Center for Cell Science, Pune or National Cancer Institute, Fredrick, Md., USA. Cells were grown in tissue culture flasks in complete growth medium (RPMI-1640 medium with 2 mM glutamine, 100 µg/ml streptomycin, pH 7.4, sterilized by filtration and supplemented with 10% sterilized fetal calf serum and 100 units/ml penicillin before use) at 37° C. in an atmosphere of 5% CO2 and 90% relative humidity in a carbon dioxide incubator. The cells at sub-confluent stage were harvested from flask by treatment with trypsin (0.05% trypsin in PBS containing 0.02% EDTA) and suspended in complete growth medium. Cells with cell viability of more than 97% by trypan blue exclusion technique were used for determination of cytotoxicity.
(§2) Test material were dissolved in DMSO (dimethyl sulphoxide) to obtain a stock solution of 2×10^−2M. The stock solution was serially diluted with complete growth medium containing 50 μg/ml of gentamycin to obtain working test solutions of required concentrations.
(§3) The suspension of human cancer cell lines of required cell density in complete growth medium was prepared and cell suspension (100 μl/well) of each cell line was added to wells of 96-well tissue culture plate. Suitable blanks and controls were also included. The plates were incubated for 24 hrs in a carbon dioxide incubator.
(§4) The working test solutions of different concentrations (100 μl/well) were added after 24 hr incubation. The plates were further incubated for 48-hrs after addition of the test materials. After incubation, the cell growth was stopped by gently layering of 50 μl of TCA (50% trichloroacetic acid) on top of the medium in all the wells. The plates were incubated at 4° C. for one hour to fix the cells attached to bottom of the wells. Liquids of all the wells were gently pipetted out and discarded. The plates were washed five times with distilled water to remove TCA, growth medium, low molecular weight metabolites, serum proteins etc. The plates were air dried.
(§5) Cell growth was measured by staining with sulforhodamine B dye (SRB). The SRB solution (100 μl, 0.4% in 1% acetic acid) was added to each well and the plates were incubated at room temperature for 30 minutes. The unbound SRB was quickly removed by washing the wells five times with 1% acetic acid solution and plates were air dried. Tris buffer (100 μl, 0.01 M, pH 10.4) was added to all the wells and plates were gently stirred for 5 minutes on a mechanical stirrer. The optical density was recorded on ELISA reader at 540 nm.
(§6) Cell growth in the presence of test material was calculated in terms of the percentage of growth inhibition. The in vitro cytotoxicity of four natural boswellic acid i.e. boswellic acid, acetyl boswellic acid, 11-keto-boswellic acids, acetyl-11-ketio-boswellic acid on various cancer cell lines has been examined and typical results are given in the succeeding table. Based on their cytotoxicity profile the analogues of formula 1 were studied for inhibition of cell proliferation by using MTT assay method. […] The induction of apoptosis in HL-60 cells was also validated by generation of DNA fragmentation.
(§7) Assay of cytotoxicity potential of test materials is a primary standard procedure for seeking lead molecules for development of anti-cancer leads. Human cancer cells after trypsinization into single cell suspension were grown in 96-well culture plate for 24 hr. Cells were treated with indicated doses of test analogues and incubated in CO2 incubator for 48 hr. Thereafter, cells were stained with sulforhodamine B dye, and the bound dye was eluted to measure the optical density indicating cell growth in Elisa Reader at 540 nm [Monks et al., 1991]. […]

[2] = system: SW-620 colon cancer cells; test: In vitro cytotoxicity, SRB assay, SW-620
Procedure: as §1, §2, §3, §4, §5, §6, §7

HT-29 colon cancer cells = test: In vitro cytotoxicity, SRB assay, HT-29
Procedure: as §1, §2, §3, §4, §5, §6, §7

Hep-2 cells = test: In vitro cytotoxicity, SRB assay, Hep-2
Procedure: as §1, §2, §3, §4, §5, §6, §7

PC-3 cells = test: In vitro cytotoxicity, SRB assay, PC-3
Procedure: as §1, §2, §3, §4, §5, §6, §7

[3] = Conc. 5 × 10^5 (r27-r29: 5 × 10^−5), 48 hr, Table 1
[4] = Conc. 5 × 10^−5, 48 hr, natural boswellic acids

| Compound | Growth inhibition % Colo-205 Colon [1, 3] | Growth inhibition % SW-620 Colon [2, 3] | Growth inhibition % HT-29 Colon (HT-29 colon cancer cells; [3]) | Growth inhibition % Hep-2 (Hep-2 cells; [3]) | Growth inhibition % PC-3 (PC-3 cells; [3]) | also measured |
| --- | --- | --- | --- | --- | --- | --- |
| CCCC(=O)OC1CCC2(C)C(CCC3(C)C2C(=O)C=C2C4C(C)C(C)CCC4(C)CCC23C)C1(C)C(=O)O (centres unmarked) | 94% |  |  |  |  |  |
| CCCCCC(=O)OC1CCC2(C)C(CCC3(C)C2C(=O)C=C2C4C(C)C(C)CCC4(C)CCC23C)C1(C)C(=O)O (centres unmarked) | 95% | 100% | 96% | 100% | 73% |  |
| CC1CCC2(C)CCC3(C)C(=CCC4C5(C)CCC(O)C(C)(C(=O)O)C5CCC43C)C2C1C (centres unmarked) [1, R3 = H, R1 = H, R4 = R5 = H] | 85% | 65% | 73% | 66% | 69% |  |
| CCCC(=O)OC1CCC2(C)C(CCC3(C)C2CC=C2C4C(C)C(C)CCC4(C)CCC23C)C1(C)C(=O)O (centres unmarked) [1, R3O = COCH2CH2CH3, R1 = H, R4 = R5 = H] | 91% | 101% | 98% | 99% | 75% |  |
| CCC(=O)OC1CCC2(C)C(CCC3(C)C2C(=O)C=C2C4C(C)C(C)CCC4(C)CCC23C)C1(C)C(=O)O (centres unmarked) [1, R3O = COCH2CH3, R1 = H, R4 + R5 = O] | 92% | 90% | 92% | 72% | 61% |  |
| CC(=O)OC1CCC2(C)C(CCC3(C)C2C(=O)C=C2C4C(C)C(C)CCC4(C)CCC23C)C1(C)C(=O)O (centres unmarked) [1, R3O = COCH3, R1 = H, R4 + R5 = O] | 56% | 48% | 45% | 50% | 60% |  |
| CC1CCC2(C)CCC3(C)C(=CC(=O)C4C5(C)CCC(OC=O)C(C)(C(=O)O)C5CCC43C)C2C1C (centres unmarked) [1, R3O = COH, R1 = H, R4 + R5 = O] | 76% | 70% | 62% | 56% | 99% |  |
| CC1CCC2(C)CCC3(C)C(=CCC4C5(C)CCC(OC=O)C(C)(C(=O)O)C5CCC43C)C2C1C (centres unmarked) [1, R3O = COH, R1 = H, R4 = R5 = H] | 93% | 92% | 79% | 75% | 99% |  |
| CCC(=O)OC1CCC2(C)C(CCC3(C)C2CC=C2C4C(C)C(C)CCC4(C)CCC23C)C1(C)C(=O)O (centres unmarked) [1, R3O = —COCH2CH3, R1 = H, R4 = R5 = H] | 86% | 94% | 94% | 86% | 98% |  |
| CC(=O)OC1CCC2(C)C(CCC3(C)C2CC=C2C4C(C)C(C)CCC4(C)CCC23C)C1(C)C(=O)O (centres unmarked) [1, R3O = —COCH3, R1 = H, R4 = R5 = H] | 34% | 38% | 34% | 41% | 54% |  |
| CCC(=O)OC1CCC2(C)C(CCC3(C)C2C(=O)C=C2C4C(C)C(C)CCC4(C)CCC23C)C1(C)C(=O)O (centres unmarked) [1, R = COCH2CH3, R1 = H, R4 + R5 = O] | 80% | 75% | 67% | 65% | 99% |  |
| CC1CCC2(C)CCC3(C)C(=CC(=O)C4C5(C)CCC(O)C(C)(C(=O)O)C5CCC43C)C2C1C (centres unmarked) [1, R = H, R1 = H, X = O] | 52% | 49% | 46% | 53% | 68% |  |
| CCCC(=O)OC1CCC2(C)C(CCC3(C)C2CC=C2C4C(C)C(C)CCC4(C)CCC23C)C1(C)C(=O)O (centres unmarked) [1,R3O = COCH2CH2CH3, R1 = H, R4 = R5 = H] | 71% | 83% | 54% | 65% | 80% |  |
| CC1CCC2(C)CCC3(C)C(=CC(=O)C4C5(C)CCC(OC(=O)CCC(=O)O)C(C)(C(=O)O)C5CCC43C)C2C1C (centres unmarked) [1,R3O = —COCH2CH2COOH R1 = H, R4 + R5 = O] | 29% | 2% | 16% | 17% | 60% |  |
| CC1CCC2(C)CCC3(C)C(=CC(=O)C4C5(C)CCC(OC(=O)CCC(=O)O)C(C)(C(=O)O)C5CCC43C)C2C1C (centres unmarked) [1,R3O = —COCH2CH2COOH, R1 = H, R4 + R5= O] | 1% | 0% | 3% | 7% | 38% |  |
| C[C@H]1[C@H](C)CC[C@]2(C)CC[C@]3(C)C(=CC(=O)[C@@H]4[C@@]5(C)CC[C@@H](O)[C@](C)(C(=O)O)[C@@H]5CC[C@]43C)[C@H]12 [11-keto-boswellic acid, reference compound] |  |  |  |  |  | Growth inhibition % SW-620 Colon [2, 4]: 28%; Growth inhibition % HT-29 Colon (HT-29 colon cancer cells; [4]): 38%; Growth inhibition % Hep-2 (Hep-2 cells; [4]): 34%; Growth inhibition % PC-3 (PC-3 cells; [4]): 100%; Growth inhibition % Colo-205 Colon [1, 4]: 50% |
| CC(=O)O[C@@H]1CC[C@@]2(C)[C@@H](CC[C@]3(C)[C@@H]2C(=O)C=C2[C@@H]4[C@@H](C)[C@H](C)CC[C@]4(C)CC[C@]23C)[C@@]1(C)C(=O)O [Acetyl-11-keto-boswellic acid, reference compound] |  |  |  |  |  | Growth inhibition % SW-620 Colon [2, 4]: 91%; Growth inhibition % HT-29 Colon (HT-29 colon cancer cells; [4]): 91%; Growth inhibition % Hep-2 (Hep-2 cells; [4]): 62%; Growth inhibition % PC-3 (PC-3 cells; [4]): 79%; Growth inhibition % Colo-205 Colon [1, 4]: 89% |
| C[C@H]1[C@H](C)CC[C@]2(C)CC[C@]3(C)C(=CC[C@@H]4[C@@]5(C)CC[C@@H](O)[C@](C)(C(=O)O)[C@@H]5CC[C@]43C)[C@H]12 [Boswellic acid] |  |  |  |  |  | Growth inhibition % SW-620 Colon [2, 4]: 61%; Growth inhibition % HT-29 Colon (HT-29 colon cancer cells; [4]): 69%; Growth inhibition % Hep-2 (Hep-2 cells; [4]): 45%; Growth inhibition % PC-3 (PC-3 cells; [4]): 100%; Growth inhibition % Colo-205 Colon [1, 4]: 86% |
| CO[C@@]12[C@H](COC(N)=O)C3=C(C(=O)C(C)=C(N)C3=O)N1C[C@@H]1N[C@@H]12 [Mitomycin C, reference compound] |  |  |  |  |  | Growth inhibition % SW-620 Colon ([2]; Conc. 1 × 10^6, Table 2): 57%; Growth inhibition % SW-620 Colon ([2]; Conc. 1 × 10^7, Table 2): 27%; Growth inhibition % HT-29 Colon (HT-29 colon cancer cells; Conc. 1 × 10^6, Table 2): 33%; Growth inhibition % HT-29 Colon (HT-29 colon cancer cells; Conc. 1 × 10^7, Table 2): 19%; Growth inhibition % Hep-2 (Hep-2 cells; Conc. 1 × 10^6, Table 2): 46%; Growth inhibition % Hep-2 (Hep-2 cells; Conc. 1 × 10^7, Table 2): 12%; Growth inhibition % PC-3 (PC-3 cells; Conc. 1 × 10^6, Table 2): 24%; Growth inhibition % PC-3 (PC-3 cells; Conc. 1 × 10^7, Table 2): 18%; Growth inhibition % Colo-205 Colon ([1]; Conc. 1 × 10^6, Table 2): 28%; Growth inhibition % Colo-205 Colon ([1]; Conc. 1 × 10^7, Table 2): 41% |
| Acetyl Boswellic acid [reference compound] |  |  |  |  |  | Growth inhibition % SW-620 Colon [2, 4]: 97%; Growth inhibition % HT-29 Colon (HT-29 colon cancer cells; [4]): 96%; Growth inhibition % Hep-2 (Hep-2 cells; [4]): 88%; Growth inhibition % PC-3 (PC-3 cells; [4]): 45%; Growth inhibition % Colo-205 Colon [1, 4]: 95% |
